Measurements published in patent US20250255890A1, “PSILOCYBIN CULTIVATION, EXTRACTION, AND THERAPEUTIC USE” (Golden Fleece Research Group Inc., priority 2024, published 2025).

Tested on: patients with certain neurological and mental disorders
Test: Therapeutic effects of psilocybin in selected patients (patient experiences)
Format: in vivo, human
Details: identified group of selected patients after intaking the psilocybin products
From the text: In one aspect, psilocybin is effective in treating and reducing ADHD, anxiety, ADD and the symptoms of Tourette Syndrome. […] Some patients suffered significant side effects when taking prescription drugs for the respective indications.

CN(C)CCc1c[nH]c2cccc(OP(=O)(O)O)c12 [Psilocybin, psilocybin]
side effects: minimal side effects
